Experimental data as given in US20230031406A1, “COMPOUNDS AND COMPOSITIONS FOR TREATING CONDITIONS ASSOCIATED WITH NLRP ACTIVITY” (Novartis AG, priority 2018, published 2023).
Like-named read-outs stand apart in the source and are kept apart here. Blank lines part the entries; values can stand above or below the molecule they belong to.

Tested on: PMA-differentiated THP-1 cells
Assay: IL-1β production in PMA-differentiated THP-1 cells stimulated with gramicidin (hTHP-1 assay containing 2% fetal bovine serum; Procedures 1 and 2)
Format: cell-based, human
Conditions: 2% fetal bovine serum
In short: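 Human monocytic THP-1 cells, matured overnight with PMA at 20 ng/ml, are seeded in low-serum (2% FBS) RPMI. Test compounds, at final concentrations from 100 down to 0.0017 μM, precede gramicidin (5 μM, 2 h) by one hour. Released IL-1β is then determined by HTRF.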

[1] = Homo sapiens, THP-1, Table B1, numeric bounds, read-out: Average IC50 of compounds in hTHP-1 assay: hTHP-1 IC50
[2] = Homo sapiens, THP-1, Table B1, class symbols, read-out: Average IC50 of compounds in hTHP-1 assay: hTHP-1 IC50
[3] = Table B1, class symbols, read-out: Average IC50 of compounds in hTHP-1 assay: hTHP-1 IC50
[4] = Homo sapiens, THP-1, Table B3, hTHP-1 assay, class symbols, read-out: IC50
[5] = Homo sapiens, THP-1, Table B2, class symbols, read-out: hTHP-1 IC50
[6] = Homo sapiens, THP-1, Table B2, numeric bounds, read-out: hTHP-1 IC50
[7] = Table B2, class symbols, read-out: hTHP-1 IC50
[8] = Table B4, class symbols, read-out: hTHP-1 IC50

IC50 [1]: > 14 µM
SMILES: Cc1nc(C)c(C)c(NC(=O)N=S(N)(=O)c2cnc(C(C)(C)O)s2)c1C (centres unmarked) [Compound 133, 2-(2-hydroxypropan-2-yl)-N′-((2,3,5,6,-tetramethylpyridin-4-yl)carbamoyl)thiazole-5-sulfonimidamide]

IC50 [2]: 5 to 30 µM
SMILES: CCc1c(C)nc2c(c1NC(=O)N=S(N)(=O)c1cnc(C(C)(C)O)s1)CCC2 (centres unmarked) [Compound 117, N′-((3-ethyl-2-methyl-6,7-dihydro-5H-cyclopenta[b]pyridin-4-yl)carbamoyl)-2-(2-hydroxypropan-2-yl)thiazole-5-sulfonimidamide]

IC50 [3]: 1 to 5 µM
SMILES: CC(C)(O)c1csc(S(N)(=O)=NC(=O)Nc2c3c(nc4c2CCC4)CCC3)c1 (single isomer, unassigned) [Compound 155b, (S) or (R)-N′-((1,2,3,5,6,7-hexahydrodicyclo-penta[b,e]pyridin-8-yl)carbamoyl)-4-(2-hydroxypropan-2-yl)thiophene-2-sulfonimidamide]

IC50 [4]: 1 to 5 µM
SMILES: Cc1c(C(F)(F)F)nc2c(c1NC(=O)N=S(N)(=O)c1ccn(C)n1)CCC2 (single isomer, unassigned) [Example 693, (R) or (S)-1-Methyl-N′-((3-methyl-2-(trifluoromethyl)-6,7-dihydro-5H-cyclopenta[b]pyridin-4-yl)carbamoyl)-1H-pyrazole-3-sulfonimidamide]

IC50 (Table B3, hTHP-1 assay, class symbols, read-out: IC50): 0.008 to 0.04 µM
SMILES: CCn1cc(F)c(S(N)(=O)=NC(=O)Nc2c3c(nc4c2CCC42CC2)CCC3)n1 (single isomer, unassigned) [Example 671, (R) or (S)-1-ethyl-4-fluoro-N′-((1′,5′,6′,7′-tetrahydro-2′H-spiro[cyclopropane-1,3′-dicyclopenta[b,e]pyridin]-8′-yl)carbamoyl)-1H-pyrazole-3-sulfonimidamide]

IC50 [5]: 1 to 5 µM
SMILES: CC(C)(O)c1csc(S(N)(=O)=NC(=O)Nc2cc(CC(F)(F)F)nc3c2CCC3)c1 (single isomer, unassigned) [Compound 607b, (R) or (S)-4-(2-Hydroxypropan-2-yl)-N′-((2-(2,2,2-trifluoroethyl)-6,7-dihydro-5H-cyclopenta[b]pyridin-4-yl)carbamoyl) thiophene-2-sulfonimidamide]

IC50 [4]: 0.04 to 0.2 µM
SMILES: C[C@@H]1CCc2c1nc1c(c2NC(=O)N=S(N)(=O)c2nn(C(F)F)cc2F)CCC1 (stereo partly drawn) [Example 568, 1-(Difluoromethyl)-4-fluoro-N′-(((R)-3-methyl-1,2,3,5,6,7-hexahydrodicyclopenta[b,e]pyridin-8-yl)carbamoyl)-1H-pyrazole-3-sulfonimidamide]

IC50 [6]: > 30 µM
SMILES: CC(C)(O)c1ccnc(S(N)(=O)=NC(=O)Nc2c3c(nc4c2CCC4(C)C)CCC3)c1 (single isomer, unassigned) [Compound 620a, (S) or (R)-N′-((3,3-dimethyl-1,2,3,5,6,7-hexahydrodicyclopenta [b,e]pyridin-8-yl)carbamoyl)-4-(2-hydroxypropan-2-yl)pyridine-2-sulfonimidamide]

IC50 [2]: 0.2 to 1 µM
SMILES: CC(C)(O)c1ccc(S(N)(=O)=NC(=O)Nc2c3c(nc4c2CCC4)CCC3)s1 (centres unmarked) [Compound 149, N′-((1,2,3,5,6,7-hexahydrodicyclopenta[b,e]pyridin-8-yl)carbamoyl)-5-(2-hydroxypropan-2-yl)thiophene-2-sulfonimidamide]

IC50 (Homo sapiens, THP-1, Table B4, class symbols, read-out: hTHP-1 IC50): 0.04 to 0.2 µM
SMILES: CCn1cc(F)c(S(N)(=O)=NC(=O)Nc2c3c(nc(C(F)(F)F)c2C2CC2)CCC3)n1 (centres unmarked) [Example 744, N′-((3-cyclopropyl-2-(trifluoromethyl)-6,7-dihydro-5H-cyclopenta[b]pyridin-4-yl)carbamoyl)-1-ethyl-4-fluoro-1H-pyrazole-3-sulfonimidamide]

IC50 [7]: 5 to 30 µM
SMILES: CC(C)(O)c1cc(Cl)c(S(N)(=O)=NC(=O)Nc2c3c(nc4c2CCC4)CCC3)s1 (single isomer, unassigned) [Compound 691a, (S) or (R)-3-Chloro-N′-((1,2,3,5,6,7-hexahydrodicyclopenta [b,e]pyridin-8-yl)carbamoyl)-5-(2-hydroxypropan-2-yl)thiophene-2-sulfonimidamide]

IC50 [6]: > 30 µM
SMILES: CC(C)n1nc(S(N)(=O)=NC(=O)Nc2c3c(nc4c2CCC4(C)C)CCC3)cc1CO (single isomer, unassigned) [Compound 652b]

IC50 [7]: 5 to 30 µM
SMILES: Cc1c(C(F)(F)F)nc2c(c1NC(=O)N=S(N)(=O)c1cnc(C(C)(O)CO)s1)CCC2 (single isomer, unassigned) [Compound 605g, (S, S) or (R, S)-2-(1,2-Dihydroxypropan-2-yl)-N′-((3-methyl-2-(trifluoromethyl)-6,7-dihydro-5H-cyclopenta[b]pyridin-4-yl)carbamoyl) thiazole-5-sulfonimidamide]

IC50 [3]: 0.04 to 0.2 µM
SMILES: CC(C)c1ncc(F)c(C(C)C)c1NC(=O)N=S(N)(=O)c1sc(C(C)(C)O)cc1F (single isomer, unassigned) [Compound 106a, (R) or (S)-3-fluoro-N′-((5-fluoro-2,4-diisopropylpyridin-3-yl)carbamoyl)-5-(2-hydroxypropan-2-yl)thiophene-2-sulfonimidamide]

IC50 [5]: 5 to 30 µM
SMILES: Cc1cc(C(C)(C)O)sc1S(N)(=O)=NC(=O)Nc1c2c(nc3c1CCC3)CCC2 (single isomer, unassigned) [Compound 695b, (R) or (S)-N′-((1,2,3,5,6,7-hexahydrodicyclopenta [b,e]pyridin-8-yl)carbamoyl)-5-(2-hydroxypropan-2-yl)-3-methylthiophene-2-sulfonimidamide]

IC50 [5]: 0.04 to 0.2 µM
SMILES: C[C@@H]1CCc2c1nc1c(c2NC(=O)N=S(N)(=O)c2cc(F)c(C(C)(C)O)s2)CCC1 (stereo partly drawn) [Compound 616, 4-Fluoro-5-(2-hydroxypropan-2-yl)-N′-(((R)-3-methyl-1,2,3,5,6,7-hexahydrodicyclopenta[b,e]pyridin-8-yl)carbamoyl)thiophene-2-sulfonimidamide]

IC50 [5]: 1 to 5 µM
SMILES: CC(C)(O)c1cc(S(N)(=O)=NC(=O)Nc2c3c(nc4c2CCC4(C)C)CCC3)nn1-c1ccc(F)cc1 (centres unmarked) [Compound 704, N′-((3,3-dimethyl-1,2,3,5,6,7-hexahydrodicyclopenta[b,e]pyridin-8-yl)carbamoyl)-1-(4-fluorophenyl)-5-(2-hydroxypropan-2-yl)-1H-pyrazole-3-sulfonimidamide]

IC50 [8]: 5 to 30 µM
SMILES: CCn1cc(F)c(S(N)(=O)=NC(=O)Nc2c(-c3ccccc3)cnc3c2CCC3)n1 (single isomer, unassigned) [Example 794, (S) or (R)-1-ethyl-4-fluoro-N′-((3-phenyl-6,7-dihydro-5H-cyclopenta[b]pyridin-4-yl)carbamoyl)-1H-pyrazole-3-sulfonimidamide]

IC50 [8]: 0.008 to 0.04 µM
SMILES: CC(C)n1cc(F)c(S(N)(=O)=NC(=O)Nc2c3c(nc4c2CC[C@H]4C)CCC3)n1 (single isomer, unassigned) [Example 757, (R) or (S)-4-fluoro-1-isopropyl-N′-(((R)-3-methyl-1,2,3,5,6,7-hexahydrodicyclopenta[b,e]pyridin-8-yl)carbamoyl)-1H-pyrazole-3-sulfonimidamide]

IC50 [7]: 0.2 to 1 µM
SMILES: Cc1c(C(F)(F)F)nc2c(c1NC(=O)N=S(N)(=O)c1cnc(C(C)(O)CO)s1)CCC2 (centres unmarked) [Compound 605, 2-(1,2-Dihydroxypropan-2-yl)-N′-((3-methyl-2-(trifluoromethyl)-6,7-dihydro-5H-cyclopenta[b]pyridin-4-yl)cabamoyl)thiazole-5-sulfonimidamide]

IC50 [6]: > 30 µM
SMILES: Cc1c(C2CCC2)nc2c(c1NC(=O)N=S(N)(=O)c1cnc(C(C)(C)O)s1)CCC2 (single isomer, unassigned) [Compound 649b, (S) or (R)-N′-((2-cyclobutyl-3-methyl-6,7-dihydro-5H-cyclopenta[b]pyridin-4-yl)carbamoyl)-2-(2-hydroxypropan-2-yl)thiazole-5-sulfonimidamide]

IC50 [7]: 0.04 to 0.2 µM
SMILES: CC1(C)CCc2c1nc1c(c2NC(=O)N=S(N)(=O)c2sc(C(C)(O)CO)cc2F)CCC1 (single isomer, unassigned) [Compound 640b, (S, R) and (R, R) or (R, S) and (S, S)-5-(1,2-Dihydroxypropan-2-yl)-N′-((3,3-dimethyl-1,2,3,5,6,7-hexahydrodicyclopenta [b,e]pyridin-8-yl)carbamoyl)-3-fluorotliophene-2-sulfonimidamide]

IC50 [5]: 1 to 5 µM
SMILES: CC(C)(O)c1ncc(S(N)(=O)=NC(=O)Nc2nc3c(c4c2CCC4)CCC3)s1 (centres unmarked) [Compound 677, N′-((1,2,3,5,6,7-hexahydrodicyclopenta[b,d]pyridin-5-yl)carbamoyl)-2-(2-hydroxypropan-2-yl)thiazole-5-sulfonimidamide]

IC50 [1]: > 30 µM
SMILES: CC(C)(O)c1ncc(S(N)(=O)=NC(=O)Nc2nc3ccccc3c3c2CCC3)s1 (centres unmarked) [Compound 111, N′-((2,3-dihydro-1H-cyclopenta[c]quinolin-4-yl)carbamoyl)-2-(2-hydroxypropan-2-yl)thiazole-5-sulfonimidamide]

IC50 [4]: 0.2 to 1 µM
SMILES: CCc1ncc(S(N)(=O)=NC(=O)Nc2c3c(nc4c2CC[C@H]4C)CCC3)s1 (stereo partly drawn) [Example 629, 2-Ethyl-N′-(((R)-3-methyl-1,2,3,5,6,7-hexahydrodicyclopenta[b,e]pyridin-8-yl)carbamoyl)thiazole-5-sulfonimidamide]

IC50 [6]: > 30 µM
SMILES: CC1(C)CCc2c1nc1c(c2NC(=O)N=S(N)(=O)c2cnn3c2OCCC3)CCC1 (single isomer, unassigned) [Compound 304a, (S) or (R)-N′-((3,3-dimethyl-1,2,3,5,6,7-hexahydrodicyclopenta [b,e]pyridin-8-yl)carbamoyl)-6,7-dihydro-5H-pyrazolo[5,1-b][1,3] oxazine-3-sulfonimidamide]
